From US7014863B2, “Additive for an animal feed” (priority 1999, dated 2006)

Assays:
Clostridium perfringens [1] = type: in vivo, chickens; conditions: inferred from FIG. 3 and common knowledge
Clostridium perfringens [2] = conditions: general common knowledge in the art; cited from earlier work

C[N+](C)(C)CC(=O)O [betaine]
effectiveness against an infection of C. perfringens (Clostridium perfringens [1]): does not result in the Clostridium infection being effectively treated | effectiveness against a C. perfringens challenge (Clostridium perfringens [2]): not effective
